The target in data set [1] is T1, ATP-dependent translocase ABCB1 (Homo sapiens, UniProt P08183). The data set is described as follows: Inhibition of human ABCB1 expressed in mouse L5178Y cells assessed as fluorescence activity ratio at 2 uM incubated for 10 mins by flow cytometry based rhodamine-123 accumulation assay (reference value: 0.78). Type of data set: cell-based.
The target of data set [2] is T1, ATP-dependent translocase ABCB1. As to the kind of experiment: Inhibition of human ABCB1 expressed in mouse L5178Y cells assessed as fluorescence activity ratio at 20 uM incubated for 10 mins by flow cytometry based rhodamine-123 accumulation assay (reference value: 0.78). In kind it is cell-based.
Data set [3] shares this target. The data set is described as follows: Inhibition of ABCB1 in multidrug resistant human COLO320 cells assessed as fluorescence activity ratio at 2 uM incubated for 10 mins by flow cytometry based rhodamine-123 accumulation assay (reference value: 0.62).
Data set [4] shares this target. As to the kind of experiment: Inhibition of ABCB1 in multidrug resistant human COLO320 cells assessed as fluorescence activity ratio at 20 uM incubated for 10 mins by flow cytometry based rhodamine-123 accumulation assay (reference value: 0.62).
For data set [5] the target is unchanged. The data set is described as follows: Inhibition of human ABCB1 expressed in mouse L5178Y cells assessed as potentiation of 2 mg/ml doxorubicin-induced cytotoxicty by measuring combination index at 4:1 compound to doxorubicin ratio incubated for 48 hrs by MTT assay. Type of data set: cell-based.
The test system of data set [6] is L5178Y. As to the kind of experiment: Antiproliferative activity against chemosensitive wild type parental mouse L5178Y cells incubated for 72 hrs by MTT assay. In kind it is functional, cell-based.
Data set [7] deals with L5178Y. As to the kind of experiment: Antiproliferative activity against human ABCB1 expressing mouse L5178Y cells incubated for 72 hrs by MTT assay. In kind it is functional, cell-based.
Data set [8] is described as follows: Antiproliferative activity against chemosensitive human COLO205 cells incubated for 72 hrs by MTT assay. Type of data set: functional, cell-based. The settings on record: COLO 205, 72 h.
A short description of data set [9]: Antiproliferative activity against multidrug resistant human COLO320 cells incubated for 72 hrs by MTT assay. Type of data set: functional. As to conditions: COLO 320, 72 h; call rule not given here.
Data set [10] relates to L5178Y. As to the kind of experiment: Cytotoxicity against chemosensitive wild type parental mouse L5178Y cells incubated for 24 hrs by MTT assay. In kind it is functional, cell-based.
In data set [11] the test system is L5178Y. As to the kind of experiment: Cytotoxicity against human ABCB1 expressing mouse L5178Y cells incubated for 24 hrs by MTT assay. Type of data set: functional, cell-based.
In another data set the test system is COLO 205. As to the kind of experiment: Cytotoxicity against chemosensitive human COLO205 cells incubated for 24 hrs by MTT assay. Type of data set: functional, cell-based. The settings on record: COLO 205, 24 h.
Data set [12] can be described thus: Cytotoxicity against multidrug resistant human COLO320 cells incubated for 24 hrs by MTT assay. Type of data set: functional, cell-based. As to conditions: COLO 320, 24 h.
Data set [13] has as its target T1, ATP-dependent translocase ABCB1. As to the kind of experiment: Inhibition of human ABCB1 expressed in mouse L5178Y cells assessed as fluorescence activity ratio at 0.2 uM incubated for 10 mins by flow cytometry based rhodamine-123 accumulation assay (reference value: 0.78). In kind it is cell-based.
The target is the same in data set [14]. The data set is described as follows: Inhibition of ABCB1 in multidrug resistant human COLO320 cells assessed as fluorescence activity ratio at 0.2 uM incubated for 10 mins by flow cytometry based rhodamine-123 accumulation assay (reference value: 0.62).
Data set [15] shares this target. As to the kind of experiment: Inhibition of human ABCB1 expressed in mouse L5178Y cells assessed as potentiation of 2 mg/ml doxorubicin-induced cytotoxicty by measuring combination index at 5:1 compound to doxorubicin ratio incubated for 48 hrs by MTT assay. Type of data set: cell-based.
Data set [16] has the same target. The data set is described as follows: Activation of human ABCB1 expressed in Sf9 cell membrane vesicles assessed as inorganic phosphate release at 0.8 uM to 100 uM using MgATP by colorimetric ATPase assay.
Data set [17] has the same target. As to the kind of experiment: Non-competitive inhibition of human ABCB1 expressed in Sf9 cell membrane vesicles assessed as reduction in verapamil transport at >25 uM using MgATP by colorimetric ATPase assay.
The target is the same in data set [18]. The data set is described as follows: Non-competitive inhibition of human ABCB1 expressed in Sf9 cell membrane vesicles assessed as reduction in vanadate-sensitive ATPase activity at >25 uM using MgATP by colorimetric ATPase assay.
In data set [19] the test system is L5178Y. As to the kind of experiment: Selectivity index, ratio of antiproliferative IC50 for wild type parental mouse L5178Y cells to antiproliferative IC50 for human ABCB1 expressing mouse L5178Y cells. In kind it is functional.
Data set [20] can be described thus: Selectivity index, ratio of antiproliferative IC50 for chemosensitive human COLO205 cells to antiproliferative IC50 for multidrug resistant human COLO320 cells. In kind it is functional, COLO 205.
The test system of data set [21] is L5178Y. As to the kind of experiment: Selectivity index, ratio of cytotoxic IC50 for wild type parental mouse L5178Y cells to cytotoxic IC50 for human ABCB1 expressing mouse L5178Y cells. In kind it is functional.
A short description of data set [22]: Selectivity index, ratio of cytotoxic IC50 for chemosensitive human COLO205 cells to cytotoxic IC50 for multidrug resistant human COLO320 cells. Type of data set: functional, COLO 205.
The target in data set [23] is T1, ATP-dependent translocase ABCB1. The data set is described as follows: Inhibition of human ABCB1 expressed in mouse L5178Y cells assessed as potentiation of 2 mg/ml doxorubicin-induced cytotoxicty at 7:1 compound to doxorubicin ratio incubated for 48 hrs by MTT assay. In kind it is cell-based.
Data set [24] has the same target. The data set is described as follows: Inhibition of human ABCB1 expressed in Sf9 cell membrane vesicles assessed as reduction in verapamil transport at 0.8 uM to 100 uM using MgATP by colorimetric ATPase assay.
Data set [25] shares this target. The data set is described as follows: Inhibition of human ABCB1 expressed in Sf9 cell membrane vesicles assessed as reduction in verapamil transport at 0.8 uM to 100 uM using MgATP by colorimetric ATPase assay relative to control.
For data set [26] the target is unchanged. As to the kind of experiment: Inhibition of human ABCB1 expressed in mouse L5178Y cells assessed as potentiation of 2 mg/ml doxorubicin-induced cytotoxicty at 6:1 compound to doxorubicin ratio incubated for 48 hrs by MTT assay. In kind it is cell-based.
For data set [27] the target is unchanged. As to the kind of experiment: Inhibition of human ABCB1 expressed in mouse L5178Y cells assessed as potentiation of 2 mg/ml doxorubicin-induced cytotoxicty at 9:1 compound to doxorubicin ratio incubated for 48 hrs by MTT assay. Type of data set: cell-based.

From ChEMBL document CHEMBL3608294, “Epoxylathyrol Derivatives: Modulation of ABCB1-Mediated Multidrug Resistance in Human Colon Adenocarcinoma and Mouse T-Lymphoma Cells” (J Nat Prod, 2015) come the findings set out here.

pIC50: −log10 of the molar value.

T1 sequence (P08183 whole entry): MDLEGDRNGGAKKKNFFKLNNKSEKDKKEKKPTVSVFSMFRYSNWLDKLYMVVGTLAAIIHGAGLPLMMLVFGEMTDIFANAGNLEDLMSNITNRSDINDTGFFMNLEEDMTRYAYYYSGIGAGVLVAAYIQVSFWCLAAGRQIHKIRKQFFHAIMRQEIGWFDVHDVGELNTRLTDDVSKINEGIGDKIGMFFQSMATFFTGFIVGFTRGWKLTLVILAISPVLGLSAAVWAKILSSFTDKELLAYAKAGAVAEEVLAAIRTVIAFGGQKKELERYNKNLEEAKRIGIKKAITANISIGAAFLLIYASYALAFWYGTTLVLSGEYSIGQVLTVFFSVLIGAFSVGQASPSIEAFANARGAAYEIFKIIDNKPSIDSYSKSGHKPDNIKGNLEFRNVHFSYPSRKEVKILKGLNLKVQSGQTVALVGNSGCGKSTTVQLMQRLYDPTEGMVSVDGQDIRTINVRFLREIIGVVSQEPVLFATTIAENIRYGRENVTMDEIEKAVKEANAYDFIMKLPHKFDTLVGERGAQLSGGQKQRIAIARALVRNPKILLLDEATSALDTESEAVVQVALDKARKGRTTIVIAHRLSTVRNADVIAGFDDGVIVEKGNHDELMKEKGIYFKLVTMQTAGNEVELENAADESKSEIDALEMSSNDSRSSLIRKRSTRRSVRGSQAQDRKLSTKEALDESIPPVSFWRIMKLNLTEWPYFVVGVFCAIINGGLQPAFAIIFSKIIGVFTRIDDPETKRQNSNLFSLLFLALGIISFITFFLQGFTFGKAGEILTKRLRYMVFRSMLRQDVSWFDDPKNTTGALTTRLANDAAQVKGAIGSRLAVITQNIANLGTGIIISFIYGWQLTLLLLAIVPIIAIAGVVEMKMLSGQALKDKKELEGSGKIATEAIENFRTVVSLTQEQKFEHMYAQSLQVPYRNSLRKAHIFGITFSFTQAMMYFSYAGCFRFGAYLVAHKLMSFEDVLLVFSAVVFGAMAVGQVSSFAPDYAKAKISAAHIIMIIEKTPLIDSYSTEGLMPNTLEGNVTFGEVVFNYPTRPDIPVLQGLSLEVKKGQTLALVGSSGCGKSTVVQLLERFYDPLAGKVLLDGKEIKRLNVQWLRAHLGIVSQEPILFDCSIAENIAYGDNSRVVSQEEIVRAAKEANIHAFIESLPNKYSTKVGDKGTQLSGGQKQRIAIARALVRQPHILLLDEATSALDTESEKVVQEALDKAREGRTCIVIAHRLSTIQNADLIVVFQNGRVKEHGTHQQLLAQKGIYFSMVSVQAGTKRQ

As to `C/C1=C\[C@@H]2[C@H](CC[C@]3(CO3)[C@H](OC(=O)c3ccc4ccccc4c3)[C@H]3[C@@H](OC(=O)c4ccc5ccccc5c4)[C@@H](C)C[C@]3(O)C1=O)C2(C)C`, the Ratio stood at 58.84 in data set [1]; 66.52 in data set [2]; 5.83 in [3]; 5.06 in data set [4]; 13.67 in data set [13]; 2.54 in [14]. For the same molecule, the CI in data set [5] was 0.233. For the same molecule, the pIC50 (in the data set with L5178Y [6]; in the data set on L5178Y [7]; in [8]; in [9]; with L5178Y [10]; in the data set on L5178Y [11]) was < 4.00 throughout. The pIC50 (in the data set on COLO 205; in data set [12]) was < 4.00 throughout.

As for `C/C1=C\[C@@H]2[C@H](CC[C@]3(CO3)[C@H](OC(=O)c3cccs3)[C@H]3[C@@H](OC(=O)c4cccs4)[C@@H](C)C[C@]3(O)C1=O)C2(C)C`, the Ratio in data set [1] came out at 31.06; in data set [2], 68.74; in data set [3], 8.44; in [4], 12.16. Further, the CI in [15] is listed as 0.196. The result in [16] was Active. The “inhibition (INH)” value in data set [17] and in [18] was “Active” in each case. Further, the pIC50 was 4.58 with L5178Y [6]; 4.49 in the data set on L5178Y [7]; 4.73 in data set [8]; < 4.00 in data set [9]; 4.48 in the data set on L5178Y [10]; 4.55 in the data set with L5178Y [11]. The pIC50 in the data set on COLO 205 was < 4.00; in [12], 4.60. Besides, the “Ratio IC50” value is reported as 0.81 with L5178Y [19], <0.19 in data set [20], 1.16 with L5178Y [21] and >3.99 in [22].

Take `C/C1=C\[C@@H]2[C@H](CC[C@]3(CO3)[C@H](OC(=O)N(C)C)[C@H]3[C@@H](O)[C@@H](C)C[C@]3(O)C1=O)C2(C)C`: the Ratio in data set [1] amounted to 0.67; in [2], 1.61; in [3], 1.03; in [4], 1.55. For the same molecule, the CI in [23] amounted to 0.861. Also, the pIC50 in the data set on L5178Y [6] is < 4.00; with L5178Y [7] it was < 4.00; in data set [8], 4.16; in [9] it was 4.16; in the data set on L5178Y [10] it was < 4.00; in the data set on L5178Y [11] it was < 4.00. For the same molecule, the pIC50 in the data set on COLO 205 was 4.39; in [12] it was < 4.00. Moreover, the results for the “Ratio IC50” value (in data set [20]; in the data set with L5178Y [21]; in [22]) were 1, >100 and <0.41, respectively.

Take `CO[C@H]1[C@@H]2[C@H](CC[C@]3(COC(=O)c4ccccc4)O[C@@H]3[C@H]3[C@@H](OC(=O)c4ccccc4)[C@@H](C)C[C@]3(O)C(=O)[C@@H]1C)C2(C)C`: the Ratio is reported as 67.06 in data set [1]; 71.78 in [2]; 9.85 in data set [3]; 13.97 in data set [4]; 11.85 in [13]; 6.34 in data set [14]. Besides, the CI in [15] is 0.057. Besides, the outcome in data set [16] was Active. The results for the “inhibition (INH)” value in [24] and in data set [25] were “Active” and 50%, respectively. The pIC50 is 4.57 in the data set on L5178Y [6]; 4.56 in the data set with L5178Y [7]; 5.28 in [8]; 5.16 in data set [9]; 4.58 in the data set on L5178Y [10]; 4.49 in the data set with L5178Y [11]. The “Ratio IC50” value in the data set on L5178Y [19] is recorded as 0.99; in [20], 0.76; in the data set with L5178Y [21], 0.8.

In the case of `C/C1=C\[C@@H]2[C@H](CC[C@@](C)(O)[C@H](O)[C@H]3[C@@H](OC(=O)c4ccccc4)[C@@H](C)C[C@]3(O)[C@H]1O)C2(C)C`, the Ratio in [1] is listed as 1.45; in [2], 33.19; in [3], 1.37; in data set [4], 4.29. Moreover, the CI in [26] came out at 0.23. Besides, the pIC50 in the data set with L5178Y [6] is < 4.00; in the data set with L5178Y [7] it was < 4.00; in [8] it was 4.52; in data set [9], 4.43; with L5178Y [10], < 4.00; with L5178Y [11], < 4.00. Besides, the pIC50 is < 4.00 in the data set on COLO 205 and 4.28 in [12]. For the same molecule, the entries for the “Ratio IC50” value in data set [20] and in data set [22] were 0.84 and >1.9, respectively.

On to `COc1ccccc1C(=O)OC[C@]1(C)CC[C@H]2[C@@H](/C=C(\C)C(=O)[C@@]3(O)C[C@H](C)[C@H](OC(=O)c4ccccc4OC)[C@@H]3[C@H]1O)C2(C)C`, for which the Ratio is 33.36 in data set [1]; 55.43 in [2]; 4.44 in data set [3]; 12.35 in data set [4]; 2.47 in data set [13]; 1.25 in [14]. Also, in data set [27], the CI was determined as 0.051. Moreover, the negative-log IC50 (pIC50) was 4.61 with L5178Y [6]; 4.50 with L5178Y [7]; 4.81 in data set [8]; 4.75 in [9]; 4.52 in the data set on L5178Y [10]; 4.41 in the data set on L5178Y [11]. Further, the pIC50 in the data set on COLO 205 was 4.61; in [12], 4.60. Besides, the “Ratio IC50” value in the data set with L5178Y [19] came to 0.78; in data set [20], 0.87; in the data set with L5178Y [21] it was 0.77; in [22], 0.99.
